Test results from patent US20220332699A1 (SAGE THERAPEUTICS, INC., priority 2019, published 2022).

Legend:
[1] = Compound stability in cryopreserved human hepatocytes; assay type: in vitro ADME; settings: pooled cryopreserved human hepatocytes, read-out: Human Hep Clint
Procedure: Pooled cryopreserved human hepatocytes from 10 donors were obtained from BioreclamationIVT (Cat No. X008001, Lot MMN). Test compounds (20 μL of 1 mM stock solution in DMSO) and control compounds 7-ethoxycoumarin and 7-hydroxycoumarin (20 μL of 3 mM stock solutions in DMSO) were diluted with 380 μL of 45% MeOH/H2O to obtain 50 μM solutions of test compound and 150 μM solutions of control compounds. Then 50 μL of these respective solutions were mixed with 450 μL of pre-warmed Williams' Medium E to obtain 5 μM test compound and 15 μM control compound solutions; and in duplicate 10 μL of these solutions were added to appropriate wells in a 96-well plate corresponding to incubation times T0, T15, T30, T60 and T90 and kept at 37° C. Cryopreserved human hepatocytes were thawed, isolated and suspended in Williams' Medium E, then diluted with pre-warmed William' Medium E to a concentration of 0.625×10^6 cells/mL. The reaction was started by aliquoting 40 μL of the hepatocytes into the 96-well plates containing 10 μL of the test and control compounds and incubated at 37° C. with 5% CO2. Stop solution (acetonitrile containing 200 ng/mL tolbutamide and labetalol as internal standards) was added at the requisite time (15, 30, 60, or 90 minutes). Hepatocytes were not added to the T0 samples, which were rather directly treated with stop solution. Medium control (MC) sample plates (T0-MC and T90-MC) were incubated in identical fashion as for the test samples, but without addition of hepatocytes and stop solution was added at the requisite times. The plates were vortexed immediately after addition of stop solution and placed on a plate shaker at 500 rpm for 10 min, then centrifuged at 3220×g for 20 min. The supernatants were transferred to 96-deep-well plates, sealed and stored at 4° C. until LC-MS-MS analysis. The concentration of compound remaining was determined by LC-MS-MS and plotted versus time. […]
Cutoff values determined by the hepatocyte stability assay are in Table 2 below: […]

CYP46A1 = CYP46A1 (Homo sapiens, UniProt Q9Y6A2); assay: CYP46A1 Enzyme Assay 2 (testosterone substrate, HPLC-MS); assay type: biochemical; settings: read-out: IC50 (CYP46A1 inhibitory activity)
Summary of the method: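 CYP46A1 (5 μM final) with testosterone ([…] final) preincubated with compound 30 min at 37° C, reaction started with NADPH-generating system and run 15 min at 37° C. Quenched in methanol containing diclofenac internal standard; product read by HPLC-MS.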

P-gp (MDR1) = assay: Compound permeability and efflux across a MDCK-MDR1 cellular membrane; assay type: in vitro ADME, canine; settings: dog, pH 7.4, MDCK-MDR1 cell monolayer; for Papp A→B at 2.5 h, 2 µM: A to B; for efflux ratio at 2.5 h, 2 μM: read-out: MDCK Effux Ratio (B:A/A:B)
Procedure: MDR1-MDCKII cells (obtained from Piet Borst at the Netherlands Cancer Institute) were seeded onto […] (PET) in 96-well BD insert systems at 2.5×10^5 cells/mL and grown for 4-7 days until confluent cell monolayer formation.
Transport buffer for test compound was HBSS with 10 mM Hepes (pH 7.4±0.05) with or without 1% BSA and with or without GF120918. Transport buffer for reference compound was HBSS with 10 mM Hepes (pH 7.4±0.05) with or without GF120918. Test and reference compounds (digoxin, nadolol and metoprolol) were diluted with transport buffer from stock solution to a concentration of 2 μM (DMSO<1%) and applied to the apical or basolateral side of the cell monolayer. Permeation of the test compounds from A to B direction or B to A direction was determined in triplicate with and without P-gp inhibitor (GF120918, 10 μM). Digoxin was tested at 10 μM in the presence or absence of 10 μM GF120918 bi-directionally as well, while nadolol and metoprolol were tested at 2 μM in the absence of GF120918 in A to B direction in duplicate. The plate was incubated for 2.5 h in a CO2 incubator at 37±1° C., with 5% CO2 at saturated humidity without shaking. Test and reference compounds were quantified by LC/MS/MS analysis based on the peak area ratio of analyte/IS.
Six wells per 96-well plate were selected for the lucifer yellow rejection assay to determine the cell monolayer integrity. Thus, 75 μL of 100 μM lucifer yellow in transport buffer and 250 μL transport buffer were added to apical and basolateral chambers, respectively. The plate was incubated for 150 min at 37° C. with 5% CO2 and 95% relative humidity without shaking. After 150 minutes incubation, 20 μL of lucifer yellow samples were taken from the apical sides, followed by the addition of 60 μL of Transport Buffer, and then 80 μL of lucifer yellow samples were taken from the basolateral sides. The relative fluorescence unit (RFU) of lucifer yellow was measured at 425/528 nm (excitation/emission) with a Envision plate reader.
The apparent permeability coefficient Papp (cm/s) was calculated using the equation: […]
wherein dCr/dt is the cumulative concentration of compound in the receiver chamber as a function of time (μM/s); Vr is the solution volume in the receiver chamber (0.075 mL on the apical side, 0.25 mL on the basolateral side); A is the surface area for the transport, i.e. 0.0804 cm^2 for the area of the monolayer; C0 is the initial concentration in the donor chamber (μM).
The efflux ratio was calculated using the equation:
Efflux Ratio=Papp(BA)/Papp(AB)

Mouse pharmacokinetics = assay type: in vivo; settings: 30 mg/kg PO
Procedure: Compound A6 was evaluated in a mouse pharmacokinetics (PK) study. The compound was dosed at 30 mg/kg PO to 3 male CD-1 mice, formulated as a solution in 30% hydroxypropyl beta-cyclodextran, with a dosing volume of 5 ml/kg. Plasma samples were collected at 0.25, 0.50, 1.0, 2.0, 4.0, 8.0 and 24 h post-dose. In 2 separate groups with 3 mice/group, Compound A6 was dosed at 30 mg/kg, PO and plasma and brain samples were collected at 0.5 and 2.0 h post-dose. […] The brain to plasma ratio at 0.25 and 2.0 h was 0.39 and 0.41, respectively.

Chain of CYP46A1 (Q9Y6A2 whole entry): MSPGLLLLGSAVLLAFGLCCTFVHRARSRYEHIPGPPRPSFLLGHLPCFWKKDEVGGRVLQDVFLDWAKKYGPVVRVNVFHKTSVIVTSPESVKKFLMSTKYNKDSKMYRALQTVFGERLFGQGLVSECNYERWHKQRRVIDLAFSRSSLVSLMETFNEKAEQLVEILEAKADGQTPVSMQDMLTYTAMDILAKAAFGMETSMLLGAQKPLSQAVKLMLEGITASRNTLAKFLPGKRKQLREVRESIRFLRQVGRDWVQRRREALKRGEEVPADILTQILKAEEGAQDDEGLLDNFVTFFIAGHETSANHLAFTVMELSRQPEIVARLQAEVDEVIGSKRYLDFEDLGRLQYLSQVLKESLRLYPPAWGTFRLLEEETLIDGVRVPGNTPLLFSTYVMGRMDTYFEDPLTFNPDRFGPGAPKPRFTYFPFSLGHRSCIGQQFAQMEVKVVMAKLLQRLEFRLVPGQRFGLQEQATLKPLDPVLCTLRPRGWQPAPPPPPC

Compound	CLint scaled at 1 µM [1] [mL/min/kg]	IC50 (CYP46A1) [nM]	Papp A→B at 2.5 h, 2 µM (P-gp (MDR1)) [×10⁻⁶ cm/s]	efflux ratio at 2.5 h, 2 μM (P-gp (MDR1))	Kp at 0.25 h (Mouse pharmacokinetics; CD-1, mouse, brain and plasma, mice, at 0.25 h, read-out: brain to plasma ratio)	Kp at 2 h (Mouse pharmacokinetics; CD-1, mouse, brain and plasma, mice, at 2.0 h, read-out: brain to plasma ratio)	AUC (Mouse pharmacokinetics; mouse, male CD-1 mice, plasma) [ng·h/mL]	Cmax (Mouse pharmacokinetics; mouse, male CD-1 mice, plasma) [ng/mL]	half-life (Mouse pharmacokinetics; mouse, male CD-1 mice, plasma) [min]
N#CC1(Cc2ccc(F)cc2)CCN(C(=O)c2cccnc2-c2ccncc2)CC1 [Compound A14, 1-([2,4′-bipyridine]-3-carbonyl)-4-(4-fluorobenzyl)piperidine-4-carbonitrile]	< 18	< 100	21	1.2					
N#CC1(Cc2ccccc2)CCN(C(=O)c2cccnc2-c2ccncc2)CC1 [Compound A32, 1-([2,4′-bipyridine]-3-carbonyl)-4-benzylpiperidine-4-carbonitrile]	< 18	< 100	28	1.2					
N#CC1(Cc2ccc(F)cc2)CCN(C(=O)c2cccnc2-c2ccncn2)CC1 [Compound A6, 4-(4-fluorobenzyl)-1-(2-(pyrimidin-4-yl)nicotinoyl)piperidine-4-carbonitrile]	< 18	< 100	22	1.4	0.39	0.41	14400	10700	57.6
C[C@H]1CN(C(=O)c2cccnc2-c2ccncn2)CC[C@]1(C#N)Cc1ccc(F)cc1 [Compound A248, (3R,4R)-4-(4-fluorobenzyl)-3-methyl-1-(2-(pyrimidin-4-yl)nicotinoyl)piperidine-4-carbonitrile]		< 100							
N#C[C@]1(Cc2ccc(F)cc2)[C@@H]2CC[C@H]1CN(C(=O)c1cccnc1-c1ccncn1)C2 [Compound A253, (1R,5S,8r)-8-(4-fluorobenzyl)-3-(2-(pyrimidin-4-yl)nicotinoyl)-3-azabicyclo[3.2.1]octane-8-carbonitrile]		> 1000							
N#CC1(Cc2c(F)cccc2F)CCN(C(=O)c2cccnc2-c2ccncc2)CC1 [Compound A274, 1-([2,4′-bipyridine]-3-carbonyl)-4-(2,6-difluorobenzyl)piperidine-4-carbonitrile]		< 100							
